Patent publication US9790221B2, “Heteroaryl compounds as IRAK inhibitors and uses thereof” (Merck Patent GmbH, priority 2014, dated 2017)
pIC50: −log10 of the molar value. Structures can show the parent of a compound that is named as a salt. Where two headings read alike, the source gives them in different places.

Key:
[1] = target: IRAK1 (His-TEV-IRAK1 (194-712)) (Homo sapiens (Human), UniProt P51617); experiment: IRAK1 enzymatic assay; type: biochemical
Procedure, shortened: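 Recombinant His-TEV-IRAK1 (194-712), 15 ng/well, autophosphorylation with 1 μM ATP plus [33P]ATP, 3 h at 30° C in Hepes pH 7.0 buffer with MgCl2, DTT, EGTA, BSA and Triton; compounds from 20 µM to 1 nM. The reaction was stopped with EDTA, and radioactivity was counted in streptavidin FlashPlates.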

IRAK4 = IRAK4 (Homo sapiens (Human), UniProt Q9NWZ3); experiment: IRAK4 enzymatic assay; type: biochemical
IRAK4, sequence (Q9NWZ3 whole entry): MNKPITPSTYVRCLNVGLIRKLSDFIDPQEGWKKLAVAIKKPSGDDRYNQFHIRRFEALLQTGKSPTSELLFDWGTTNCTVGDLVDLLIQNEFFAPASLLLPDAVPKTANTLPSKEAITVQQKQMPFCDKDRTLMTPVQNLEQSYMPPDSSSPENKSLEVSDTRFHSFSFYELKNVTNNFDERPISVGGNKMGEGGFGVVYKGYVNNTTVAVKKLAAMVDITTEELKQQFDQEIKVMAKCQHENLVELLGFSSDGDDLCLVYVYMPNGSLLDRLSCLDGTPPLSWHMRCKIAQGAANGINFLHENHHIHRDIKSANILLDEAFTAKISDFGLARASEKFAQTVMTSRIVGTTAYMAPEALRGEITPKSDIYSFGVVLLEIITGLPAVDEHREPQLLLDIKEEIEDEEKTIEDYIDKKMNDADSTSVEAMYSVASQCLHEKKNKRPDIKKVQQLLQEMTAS
Procedure, shortened: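 Recombinant His-TEV-IRAK4 (20 ng/well) phosphorylating biotinylated STK1 peptide (300 nM) with 2 μM ATP plus [^33P]ATP, 3 h at 30° C in pH 7.0 Hepes buffer with Mg2+ and Mn2+. Compounds 20 µM to 1 nM; EDTA stop, radioactivity captured on streptavidin FlashPlates.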

[2] = tested on: TLR7 induced IL-6 secretion in human mononuclear cells (PBMC's); experiment: TLR7 induced IL-6 in human PBMC's; type: cell-based; settings: read-out: TLR7 induced IL-6 secretion in hPBMC's (IC50)
Protocol: TLR7 Induced IL-6 in Human PBMC's
Human PBMC assay was used as one of the functional assay a to monitor the activity of IRAK1 and IRAK4 small molecule inhibitors on TLR7 induced IL-6 secretion in human mononuclear cells (PBMC's). Human PBMCs were prepared from buffy coats (whole blood enriched with leukocytes and platelets) obtained from healthy volunteers used either fresh or frozen are plated in assay media (RPMI+2% P/S/L-glu+10% HI-FBS) and pre-treated with compounds in DMSO/media (range of concentrations from 25 uM to 0.4 nM) or controls (0.25% DMSO) for 30 minutes at 37° C. in assay media. Following pre-treatment with IRAK1 and IRAK4 inhibitors, PBMC's were stimulated with TLR7 specific ligand (2 uM) overnight (16-18 hrs) at 37° C. After incubation supernatant was transferred to 384 well PE AlphaPlate-384 (6005350) and IL-6 is quantified using Perkin Elmer IL-6 Alpha LISA kit (AL223C). Plates were read on an Envision® plate reader with Alpha Technology®.

IRAK1 (His-TEV-IRAK1 (194-712)), sequence (P51617 194-712): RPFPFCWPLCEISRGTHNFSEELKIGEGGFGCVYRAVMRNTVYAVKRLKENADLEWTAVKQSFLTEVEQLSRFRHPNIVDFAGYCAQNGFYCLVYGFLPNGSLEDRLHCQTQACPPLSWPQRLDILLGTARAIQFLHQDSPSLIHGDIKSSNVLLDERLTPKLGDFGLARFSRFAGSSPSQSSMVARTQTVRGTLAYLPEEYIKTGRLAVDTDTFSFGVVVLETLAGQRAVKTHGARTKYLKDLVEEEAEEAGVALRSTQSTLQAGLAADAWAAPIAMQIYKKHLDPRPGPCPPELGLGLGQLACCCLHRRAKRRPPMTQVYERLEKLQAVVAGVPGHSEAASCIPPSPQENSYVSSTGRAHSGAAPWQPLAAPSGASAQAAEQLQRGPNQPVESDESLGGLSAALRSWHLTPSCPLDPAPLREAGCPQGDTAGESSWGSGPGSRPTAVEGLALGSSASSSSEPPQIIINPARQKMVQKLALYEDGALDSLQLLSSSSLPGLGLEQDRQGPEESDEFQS

| Structure (SMILES) | pIC50 [1] | pIC50 (IRAK4) | pIC50 ([2]; Homo sapiens, PBMC) | pIC50 [2] |
| --- | --- | --- | --- | --- |
| Cn1cc(-c2cccc(-c3ncc(-c4cnn(C)c4)c(NCCN4CCOCC4)n3)c2)cn1 [Example 36] | 5.30 to 6.00 | 6.00 to 7.00 | 6.00 to 7.00 |  |
| CC(C)Nc1cc(-c2cccc(-c3cnn(C)c3)c2)ncc1-c1nnc(C(=O)N2CC[C@@H](O)C2)s1 [Example 21, ((R)-3-Hydroxy-pyrrolidin-1-yl)-(5-{4-isopropylamino-6-[3-(1-methyl-1H-pyrazol-4-yl)-phenyl]-pyridin-3-yl}-[1,3,4]thiadiazol-2-yl)-methanone] | 5.30 to 6.00 | > 7.00 | 5.30 to 6.00 |  |
| Cn1cc(-c2cccc(-c3ncc(-c4cnn(C)c4)c(NCC4CCNC(=O)C4)n3)c2)cn1 (stereo not drawn) [Example 76] | 5.30 to 6.00 | 6.00 to 7.00 | < 5.30 |  |
| Cn1cc(-c2cccc(-c3ncc(-c4ccn(C)n4)c(NC[C@@H](O)CO)n3)c2)cn1 [Example 83] | 5.30 to 6.00 | 6.00 to 7.00 | 6.00 to 7.00 |  |
| Cn1cc(-c2cccc(-c3ncc(-c4ccn(C)n4)c(NC4CCCCNC4)n3)c2)cn1 (stereo not drawn) [Example 125] | < 5.30 | 6.00 to 7.00 | 6.00 to 7.00 |  |
| Cn1cc(-c2cccc(-c3ncc(-c4cnn(C)c4)c(N[C@H]4C[C@@H](N)C4)n3)c2)cn1 [Example 62] | 5.30 to 6.00 | 6.00 to 7.00 | 5.30 to 6.00 |  |
| Cn1cc(-c2cccc(-c3ncc(-c4cnn(C)c4)c(NCCC4CCNC4)n3)c2)cn1 (stereo not drawn) [Example 85] | < 5.30 | 6.00 to 7.00 | 5.30 to 6.00 |  |
| COC(=O)c1nnc(-c2cnc(-c3cccc(-c4cnn(C)c4)c3)nc2NC2CCCNC2)s1 (stereo not drawn) [Example 18, 5-[2-[3-(1-Methyl-1H-pyrazol-4-yl)-phenyl]-4-(piperidin-3-ylamino)-pyrimidin-5-yl]-[1,3,4]thiadiazole-2-carboxylic Acid Methyl Ester Hydrochloride] | < 5.30 | > 7.00 | 6.00 to 7.00 |  |
| Cn1cc(-c2cccc(-c3ncc(-c4cnn(C)c4)c(N[C@H]4C[C@H](O)C4)n3)c2)cn1 [Example 47] | 5.30 to 6.00 | 6.00 to 7.00 | < 5.30 |  |
| Cn1cc(-c2cccc(-c3ncc(-c4cnn(C)c4)c(NCC(F)(F)C(F)(F)C(F)(F)F)n3)c2)cn1 [Example 272] | 6.00 to 7.00 | > 7.00 |  | 5.30 to 6.00 |
| Cn1cc(-c2cccc(-c3ncc(-c4cnn(C)c4)c(NCC4[C@H]5CNC[C@@H]45)n3)c2)cn1 (stereo partly drawn) [Example 77] | < 5.30 | 6.00 to 7.00 | 5.30 to 6.00 |  |
| Cn1cc(-c2cccc(-c3ncc(-c4cnn(C)c4)c(OCC4CCCO4)n3)c2)cn1 (stereo not drawn) [Example 118] | 5.30 to 6.00 | > 7.00 | 5.30 to 6.00 |  |
| Cn1cc(-c2cccc(-c3ncc(-c4cnn(C)c4)c(N[C@H]4CCC(=O)NC4)n3)c2)cn1 [Example 60] | 5.30 to 6.00 | 6.00 to 7.00 | 5.30 to 6.00 |  |
| Cc1nnc(-c2cnc(-c3cccc(-c4cnn(C)c4)c3)nc2NC2CCC(F)(F)CC2)s1 [Example 214] | < 5.30 | > 7.00 | 5.30 to 6.00 |  |
| Cc1nnc(-c2cnc(-c3cccc(-c4cnn(C)c4)c3)nc2NC2CCS(=O)(=O)CC2)s1 [Example 243] | 5.30 to 6.00 | > 7.00 | 6.00 to 7.00 |  |
| Cn1cc(-c2cccc(-c3ncc(-c4ccn(C)n4)c(N[C@@H]4CCC[C@@H](O)[C@H]4O)n3)c2)cn1 (racemic) [Example 131] | 5.30 to 6.00 | > 7.00 | 5.30 to 6.00 |  |
| Cn1cc(-c2cccc(-c3ncc(-c4cnn(C)c4)c(NCC(O)C(F)(F)F)n3)c2)cn1 (stereo not drawn) [Example 275] | 6.00 to 7.00 | > 7.00 | 6.00 to 7.00 |  |
| Cn1cc(-c2cccc(-c3ncc(-c4cnn(C)c4)c(NC4CCOCC4)n3)c2)cn1 [Example 137] | 6.00 to 7.00 | > 7.00 | 6.00 to 7.00 |  |
| Cn1cc(-c2cccc(-c3ncc(-c4cnn(C)c4)c(N[C@H]4CCN(S(C)(=O)=O)C4)n3)c2)cn1 [Example 170] | 6.00 to 7.00 |  | 5.30 to 6.00 |  |
| Cn1cc(-c2cccc(-c3ncc(-c4ccn(C)n4)c(O[C@@H]4CCC[C@@H](N)[C@@H]4O)n3)c2)cn1 [Example 132] | 6.00 to 7.00 |  | 6.00 to 7.00 |  |

Now from value to molecule, other results behind:

| pIC50 [1] | pIC50 (IRAK4) | Structure (SMILES) | pIC50 ([2]; Homo sapiens, PBMC) | pIC50 [2] |
| --- | --- | --- | --- | --- |
| 6.00 to 7.00 | > 7.00 | Cn1cc(-c2cccc(-c3ncc(-c4cnn(C)c4)c(NCC(F)(F)F)n3)c2)cn1 [Example 271] | 5.30 to 6.00 |  |
| 6.00 to 7.00 | > 7.00 | Cc1ccc(-c2cnc(-c3cccc(-c4cnn(C)c4)c3)nc2NC2CCN(S(C)(=O)=O)CC2)cn1 [Example 215] | 6.00 to 7.00 |  |
| 6.00 to 7.00 | > 7.00 | Cn1cc(-c2cccc(-c3ncc(-c4cnn(C)c4)c(NC4CC5(CCN(S(C)(=O)=O)C5)C4)n3)c2)cn1 (stereo not drawn) [Example 169] | < 5.30 |  |
| 6.00 to 7.00 | > 7.00 | Cn1cc(-c2cccc(-c3ncc(-c4cnn(C)c4)c(NC[C@H]4CCCC[C@H]4O)n3)c2)cn1 [Example 225] | 6.00 to 7.00 |  |
| 6.00 to 7.00 | > 7.00 | Cn1cc(-c2cccc(-c3ncc(-c4cnn(C)c4)c(NC4CC5(CC(N)C5)C4)n3)c2)cn1 (stereo not drawn) [Example 65] | 6.00 to 7.00 |  |
| 6.00 to 7.00 | > 7.00 | Cn1cc(-c2cccc(-c3ncc(-c4cnn(C)c4)c(N[C@H]4CC[C@@H](N5CCOCC5)CC4)n3)c2)cn1 [Example 233] | 6.00 to 7.00 |  |
| > 7.00 | > 7.00 | Cn1cc(-c2cccc(-c3ncc(-c4cnn(C)c4)c(NC45CC(CNS(C)(=O)=O)(C4)C5)n3)c2)cn1 [Example 245] | 6.00 to 7.00 |  |
| 6.00 to 7.00 | > 7.00 | Cn1cc(-c2cccc(-c3ncc(-c4cnn(C)c4)c(NC4C5CCCC4CC(N)C5)n3)c2)cn1 (stereo not drawn) [Example 153] | 6.00 to 7.00 |  |
| 6.00 to 7.00 | > 7.00 | Cn1cc(-c2cccc(-c3ncc(-c4cnn(C)c4)c(N[C@@H]4CNC[C@H]4O)n3)c2)cn1 (racemic) [Example 113] | 5.30 to 6.00 |  |
| 6.00 to 7.00 | > 7.00 | Cn1cc(-c2cccc(-c3ncc(-c4cnn(C)c4)c(NCCNS(C)(=O)=O)n3)c2)cn1 [Example 267] | 6.00 to 7.00 |  |
| 6.00 to 7.00 | > 7.00 | Cn1cc(-c2cccc(-c3ncc(-c4cnn(C)c4)c(NCCN4CCS(=O)(=O)CC4)n3)c2)cn1 [Example 55] | 5.30 to 6.00 |  |
| 6.00 to 7.00 | > 7.00 | Cn1cc(-c2cccc(-c3ncc(-c4cnn(C)c4)c(NC4CCS(=O)(=O)CC4)n3)c2)cn1 [Example 257] | 5.30 to 6.00 |  |
| 6.00 to 7.00 | > 7.00 | Cn1cc(-c2cccc(-c3ncc(-c4cnn(C)c4)c(N[C@H]4CC[C@H](O)CC4)n3)c2)cn1 [Example 149] | 6.00 to 7.00 |  |
| 6.00 to 7.00 |  | Cc1nnc(-c2cnc(-c3cccc(-c4cnn(C)c4)c3)nc2NC2CCN(S(C)(=O)=O)CC2)s1 [Example 151] | 6.00 to 7.00 |  |
| > 7.00 | > 7.00 | Cn1cc(-c2cccc(-c3ncc(-c4cnn(C)c4)c(N[C@H]4CCCC[C@@H](O)[C@H]4O)n3)c2)cn1 [Example 288, (1R,2S,3S)-3-{5-(1-Methyl-1H-pyrazol-4-yl)-2-[3-(1-methyl-1H-pyrazol-4-yl)-phenyl]-pyrimidin-4-ylamino}-cycloheptane-1,2-diol] |  | > 7.00 |
| > 7.00 | > 7.00 | Cn1cc(-c2cccc(-c3ncc(-c4cnn(C)c4)c(NC45CCC(N)(CC4)CC5)n3)c2)cn1 [Example 186] | 6.00 to 7.00 |  |
